Data published in patent US6121287A, “Quinoline derivatives” (Active Biotech AB, priority 1999, dated 2000).
Like-named read-outs stand apart in the source and are kept apart here.

What was measured:
[1] = test system: foetuses of pregnant female rats; test: Teratogenic Effects in the Rat; format: in vivo; conditions: 6 mg/kg/day (dose given for the N-methyl-N-phenyl compound), subcutaneous, day 8 to 14 of pregnancy
From the text: Teratogenic Effects in the Rat
The compounds were administrated subcutaneously to female rats during pregnancy, i.e., day 8 to 14 of pregnancy. The rats were caesarean sectioned and necropsied on day 20 after fertilization. The foetuses were examined for external and internal abnormalities.

[2] = test system: acute experimental autoimmune encephalomyelitis (aEAE); test: inhibition of acute experimental autoimmune encephalomyelitis (aEAE) in mice; format: in vivo, mice (STUN female); conditions: for % aEAE Inhibition: percent inhibition of clinical scores vs saline treated controls
[3] = test system: foetuses of pregnant female rats; conditions: rat; background statement; cited from earlier work
cell-mediated immunity = conditions: cited from earlier work
multiple sclerosis = conditions: cited from earlier work
beagle dogs = conditions: different breeds of beagle dogs; cited from earlier work

Row | SMILES | teratogenic effect [1] | % aEAE Inhibition ([2]; 0.04 mg/kg p.o.) [%] | % aEAE Inhibition ([2]; 0.2 mg/kg p.o.) [%] | % aEAE Inhibition ([2]; 1 mg/kg p.o.) [%] | other results
1 | CCN(C(=O)c1c(O)c2c(SC)cccc2n(C)c1=O)c1ccccc1 [Compound A, N-ethyl-N-phenyl-1,2-dihydro-4-hydroxy-5-thiomethyl-1-methyl-2-oxo-quinoline-3-carboxamide] | non-teratogenic | 28 | 49 |  | 
2 | CSc1cccc2c1c(O)c(C(=O)N(C)c1ccccc1)c(=O)n2C [N-methyl-N-phenyl-1,2-dihydro-4-hydroxy-5-thiomethyl-1-methyl-2-oxo-quinoline-3-carboxamide] | teratogenic |  |  |  | 
3 | CSc1cccc2c1c(O)c(C(=O)N(C)c1ccc(F)cc1F)c(=O)n2C [Compound B, N-methyl-N-(2,4-difluoro-phenyl)-1,2-dihydro-4-hydroxy-5-thiomethyl-1-methyl-2-oxo-quinoline-3-carboxamide] | non-teratogenic |  | 67 | 97 | 
4 | CN(C(=O)c1c(O)c2ccccc2n(C)c1=O)c1ccccc1 [Roquinimex, roquinimex] |  |  |  |  | teratogenic effect [3]: teratogenic in the rat; inhibition of aEAE (treatment control) ([2]; at ≥5 mg/kg, mice): more than 50%; immunomodulatory activities (cell-mediated immunity): multiple immunomodulatory activities not accompanied with general immunosuppression; clinical efficacy in conditions associated with MS (multiple sclerosis; clinical trials comparing roquinimex to placebo): hold promise in the treatment of conditions associated with MS; dose-limiting side effects in man (multiple sclerosis; man): induces dose-limiting side effects in man, e.g., a flu-like syndrome; Beagle Pain Syndrome (BPS) induction (beagle dogs): induce the Beagle Pain Syndrome (BPS)
5 | CSc1ccc2c(c1)c(O)c(C(=O)N(C)c1ccc(F)cc1F)c(=O)n2C [Compound D, N-methyl-N-(2,4difluoro-phenyl)-l,2-dihydro-4-hydroxy-6-thiomethyl-1-methyl-2-oxo-quinoline-3-carboxamide] |  |  | 0 | 66 | 
6 | CCN(C(=O)c1c(O)c2cc(SC)ccc2n(C)c1=O)c1ccccc1 [Compound C, N-ethyl-N-phenyl-1,2-dihydro-4-hydroxy-6-thiomethyl-1-methyl-2-oxo-quinoline3-carboxamide] |  | 0 | 23 |  | 
